Columns and labels:
Assay type in all cases: in vivo
[1] = system: Zea mays; experiment: Post-emergence crop plant compatibility
Protocol: (§1) Seeds of monocotyledonous and dicotyledonous weeds and crop plants were placed in sandy loam in plastic or wood-fiber pots, covered with soil and cultivated in a greenhouse under controlled growth conditions. 2 to 3 weeks after sowing, the test plants were treated at the one-leaf stage. The compounds of the invention, formulated in the form of wettable powders (WP) or as emulsion concentrates (EC), were then sprayed onto the green parts of the plants as aqueous suspension or emulsion with addition of 0.5% additive at a water application rate of […] (converted). After the test plants had been kept in the greenhouse under optimum growth conditions for about 3 weeks, the activity of the preparations was rated visually in comparison to untreated controls. For example, 100% activity=the plants have died, 0% activity=like control plants.
(§2) Here, the observed effects on selected crop plants are stated in comparison to the untreated controls (values in %).

[2] = system: Glycine max; experiment: Post-emergence crop plant compatibility; settings: application rate 1.25 g/ha
Protocol: as §1, §2

[3] = system: Triticum aestivum; experiment: Post-emergence crop plant compatibility
Protocol: as §1, §2

[4] = system: Oryza sativa; experiment: Post-emergence crop plant compatibility
Protocol: as §1, §2

[5] = system: Veronica persica; experiment: Post-emergence herbicidal action; settings: Veronica persica, 504 h, read-out: Veronica persica (efficacy in %); for pest or weed control at 5 g/ha: application rate 5 g/ha; for pest or weed control at 20 g/ha: application rate 20 g/ha
Protocol: as §1, with “plants. Tables A1 to A14 below show the effects of selected compounds of the general formula (I) according to Tables I.1 to I.34 on various harmful plants and at an application rate corresponding to 20 g/ha and less, which were obtained by the experimental procedure mentioned above.” for “plants.”

[6] = system: Matricaria inodora; experiment: Post-emergence herbicidal action; settings: Tripleurospermum inodorum, 504 h, application rate 20 g/ha, read-out: Matricaria inodora (efficacy in %)
Protocol: as §1, with “plants. Tables A1 to A14 below show the effects of selected compounds of the general formula (I) according to Tables I.1 to I.34 on various harmful plants and at an application rate corresponding to 20 g/ha and less, which were obtained by the experimental procedure mentioned above.” for “plants.”

[7] = system: Abutilon theophrasti; experiment: Post-emergence herbicidal action; settings: Abutilon theophrasti, 504 h, read-out: Abutilon theophrasti (efficacy in %); for pest or weed control at 5 g/ha: application rate 5 g/ha; for pest or weed control at 20 g/ha: application rate 20 g/ha
Protocol: as §1, with “plants. Tables A1 to A14 below show the effects of selected compounds of the general formula (I) according to Tables I.1 to I.34 on various harmful plants and at an application rate corresponding to 20 g/ha and less, which were obtained by the experimental procedure mentioned above.” for “plants.”

[8] = system: Setaria viridis; experiment: Post-emergence herbicidal action; settings: 504 h, read-out: Setaria viridis (efficacy in %); for pest or weed control at 5 g/ha: application rate 5 g/ha; for pest or weed control at 20 g/ha: application rate 20 g/ha
Protocol: as §1, with “plants. Tables A1 to A14 below show the effects of selected compounds of the general formula (I) according to Tables I.1 to I.34 on various harmful plants and at an application rate corresponding to 20 g/ha and less, which were obtained by the experimental procedure mentioned above.” for “plants.”

[9] = system: Stellaria media; experiment: Post-emergence herbicidal action
Protocol: as §1, with “plants. Tables A1 to A14 below show the effects of selected compounds of the general formula (I) according to Tables I.1 to I.34 on various harmful plants and at an application rate corresponding to 20 g/ha and less, which were obtained by the experimental procedure mentioned above.” for “plants.”

[10] = system: Digitaria sanguinalis; experiment: Post-emergence herbicidal action; settings: 504 h, read-out: Digitaria sanguinalis (efficacy in %); for pest or weed control at 20 g/ha: application rate 20 g/ha; for pest or weed control at 5 g/ha: application rate 5 g/ha
Protocol: as §1, with “plants. Tables A1 to A14 below show the effects of selected compounds of the general formula (I) according to Tables I.1 to I.34 on various harmful plants and at an application rate corresponding to 20 g/ha and less, which were obtained by the experimental procedure mentioned above.” for “plants.”

[11] = system: Polygonum convolvulus; experiment: Post-emergence herbicidal action; settings: Fallopia convolvulus, 504 h, read-out: Polygonum convolvulus (efficacy in %); for pest or weed control at 5 g/ha: application rate 5 g/ha; for pest or weed control at 20 g/ha: application rate 20 g/ha
Protocol: as §1, with “plants. Tables A1 to A14 below show the effects of selected compounds of the general formula (I) according to Tables I.1 to I.34 on various harmful plants and at an application rate corresponding to 20 g/ha and less, which were obtained by the experimental procedure mentioned above.” for “plants.”

[12] = system: Viola tricolor; experiment: Post-emergence herbicidal action; settings: Viola tricolor, 504 h, read-out: Viola tricolor (efficacy in %); for pest or weed control at 5 g/ha: application rate 5 g/ha; for pest or weed control at 20 g/ha: application rate 20 g/ha
Protocol: as §1, with “plants. Tables A1 to A14 below show the effects of selected compounds of the general formula (I) according to Tables I.1 to I.34 on various harmful plants and at an application rate corresponding to 20 g/ha and less, which were obtained by the experimental procedure mentioned above.” for “plants.”

[13] = system: Echinochloa crus-galli; experiment: Post-emergence herbicidal action; settings: Echinochloa crus-galli, 504 h, read-out: Echinochloa crus-galli (efficacy in %); for pest or weed control at 20 g/ha: application rate 20 g/ha; for pest or weed control at 5 g/ha: application rate 5 g/ha
Protocol: as §1, with “plants. Tables A1 to A14 below show the effects of selected compounds of the general formula (I) according to Tables I.1 to I.34 on various harmful plants and at an application rate corresponding to 20 g/ha and less, which were obtained by the experimental procedure mentioned above.” for “plants.”

[14] = system: Amaranthus retroflexus; experiment: Post-emergence herbicidal action; settings: Amaranthus retroflexus, 504 h, read-out: Amaranthus retroflexus (efficacy in %); for pest or weed control at 5 g/ha: application rate 5 g/ha; for pest or weed control at 20 g/ha: application rate 20 g/ha
Protocol: as §1, with “plants. Tables A1 to A14 below show the effects of selected compounds of the general formula (I) according to Tables I.1 to I.34 on various harmful plants and at an application rate corresponding to 20 g/ha and less, which were obtained by the experimental procedure mentioned above.” for “plants.”

[15] = system: Brassica napus; experiment: Post-emergence crop plant compatibility; settings: application rate 1.25 g/ha
Protocol: as §1, §2

[16] = system: Alopecurus myosuroides; experiment: Post-emergence herbicidal action
Protocol: as §1, with “plants. Tables A1 to A14 below show the effects of selected compounds of the general formula (I) according to Tables I.1 to I.34 on various harmful plants and at an application rate corresponding to 20 g/ha and less, which were obtained by the experimental procedure mentioned above.” for “plants.”

[17] = system: Pharbitis purpurea; experiment: Post-emergence herbicidal action; settings: Ipomoea purpurea, 504 h, read-out: Pharbitis purpurea (efficacy in %); for pest or weed control at 5 g/ha: application rate 5 g/ha; for pest or weed control at 20 g/ha: application rate 20 g/ha
Protocol: as §1, with “plants. Tables A1 to A14 below show the effects of selected compounds of the general formula (I) according to Tables I.1 to I.34 on various harmful plants and at an application rate corresponding to 20 g/ha and less, which were obtained by the experimental procedure mentioned above.” for “plants.”

[18] = system: Avena fatua; experiment: Post-emergence herbicidal action; settings: application rate 20 g/ha
Protocol: as §1, with “plants. Tables A1 to A14 below show the effects of selected compounds of the general formula (I) according to Tables I.1 to I.34 on various harmful plants and at an application rate corresponding to 20 g/ha and less, which were obtained by the experimental procedure mentioned above.” for “plants.”

## CCOC(=O)C(C)Oc1ncccc1Sc1cc(-n2c(=O)cc(C(F)(F)F)n(N)c2=O)c(F)cc1Cl (centres unmarked) [I.2-442, Ethyl 2-{[3-({5-[3-amino-2,6-dioxo-4-(trifluoromethyl)-3,6-dihydropyrimidin-1(2H)-yl]-2-chloro-4-fluorophenyl}sulfanyl)pyridin-2-yl]oxy}propanoate]
[1]; application rate 1.25 g/ha
  Zea mays (efficacy in %): 10%
[1]; application rate 5 g/ha
  Zea mays (efficacy in %): 20%
[2]
  Glycine max (efficacy in %): 10%
[3]; application rate 5 g/ha
  Triticum aestivum (efficacy in %): 20%
[4]; application rate 5 g/ha
  Oryza sativa (efficacy in %): 0%
[5]
  pest or weed control at 5 g/ha: 100%
  pest or weed control at 20 g/ha: 100%
[6]
  pest or weed control at 20 g/ha: 90%
[7]
  pest or weed control at 5 g/ha: 100%
  pest or weed control at 20 g/ha: 100%
[8]
  pest or weed control at 5 g/ha: 100%
  pest or weed control at 20 g/ha: 100%
[9]; application rate 5 g/ha
  Stellaria media (efficacy in %): 80%
[9]; application rate 20 g/ha
  Stellaria media (efficacy in %): 100%
[10]
  pest or weed control at 20 g/ha: 100%
[11]
  pest or weed control at 5 g/ha: 100%
  pest or weed control at 20 g/ha: 100%
[12]
  pest or weed control at 5 g/ha: 100%
  pest or weed control at 20 g/ha: 100%
[13]
  pest or weed control at 20 g/ha: 100%
[14]
  pest or weed control at 5 g/ha: 100%
  pest or weed control at 20 g/ha: 100%

## COC(=O)CCCOc1ncccc1Sc1cc(-n2c(=O)cc(C(F)(F)F)n(N)c2=O)c(F)cc1Cl [I.6-441, Methyl 4-{[3-({5-[3-amino-2,6-dioxo-4-(trifluoromethyl)-3,6-dihydropyrimidin-1(2H)-yl]-2-chloro-4-fluorophenyl}sulfanyl)pyridin-2-yl]oxy}butanoate]
[15]
  Brassica napus (efficacy in %): 20%
[1]; application rate 1.25 g/ha
  Zea mays (efficacy in %): 10%
[1]; application rate 5 g/ha
  Zea mays (efficacy in %): 20%
[3]; application rate 5 g/ha
  Triticum aestivum (efficacy in %): 20%
[4]; application rate 5 g/ha
  Oryza sativa (efficacy in %): 20%
[5]
  pest or weed control at 5 g/ha: 100%
  pest or weed control at 20 g/ha: 100%
[6]
  pest or weed control at 20 g/ha: 80%
[7]
  pest or weed control at 5 g/ha: 100%
  pest or weed control at 20 g/ha: 100%
[16]; application rate 20 g/ha
  Alopecurus myosuroides (efficacy in %): 80%
[8]
  pest or weed control at 5 g/ha: 90%
  pest or weed control at 20 g/ha: 100%
[9]; application rate 5 g/ha
  Stellaria media (efficacy in %): 100%
[9]; application rate 20 g/ha
  Stellaria media (efficacy in %): 100%
[17]
  pest or weed control at 5 g/ha: 80%
  pest or weed control at 20 g/ha: 90%
[10]
  pest or weed control at 5 g/ha: 80%
  pest or weed control at 20 g/ha: 100%
[11]
  pest or weed control at 5 g/ha: 100%
  pest or weed control at 20 g/ha: 100%
[12]
  pest or weed control at 5 g/ha: 100%
  pest or weed control at 20 g/ha: 100%
[13]
  pest or weed control at 5 g/ha: 80%
  pest or weed control at 20 g/ha: 90%
[14]
  pest or weed control at 5 g/ha: 100%
  pest or weed control at 20 g/ha: 100%

## Nn1c(C(F)(F)F)cc(=O)n(-c2cc(Sc3cccnc3OCC(=O)OCc3ccccc3)c(Cl)cc2F)c1=O [I.1-457, Benzyl {[3-({5-[3-amino-2,6-dioxo-4-(trifluoromethyl)-3,6-dihydropyrimidin-1(2H)-yl]-2-chloro-4-fluorophenyl}sulfanyl)pyridin-2-yl]oxy}acetate]
[1]; application rate 1.25 g/ha
  Zea mays (efficacy in %): 20%
[3]; application rate 1.25 g/ha
  Triticum aestivum (efficacy in %): 20%
[4]; application rate 1.25 g/ha
  Oryza sativa (efficacy in %): 0%
[5]
  pest or weed control at 5 g/ha: 100%
  pest or weed control at 20 g/ha: 100%
[6]
  pest or weed control at 20 g/ha: 90%
[7]
  pest or weed control at 5 g/ha: 100%
  pest or weed control at 20 g/ha: 100%
[16]; application rate 5 g/ha
  Alopecurus myosuroides (efficacy in %): 80%
[16]; application rate 20 g/ha
  Alopecurus myosuroides (efficacy in %): 80%
[8]
  pest or weed control at 5 g/ha: 100%
  pest or weed control at 20 g/ha: 100%
[17]
  pest or weed control at 5 g/ha: 100%
  pest or weed control at 20 g/ha: 100%
[10]
  pest or weed control at 5 g/ha: 100%
  pest or weed control at 20 g/ha: 100%
[11]
  pest or weed control at 5 g/ha: 100%
  pest or weed control at 20 g/ha: 100%
[18]
  Avena fatua (efficacy in %): 80%
[12]
  pest or weed control at 5 g/ha: 100%
  pest or weed control at 20 g/ha: 100%
[13]
  pest or weed control at 5 g/ha: 80%
  pest or weed control at 20 g/ha: 100%
[14]
  pest or weed control at 5 g/ha: 100%
  pest or weed control at 20 g/ha: 100%

From patent US20220274954A1, “SUBSTITUTED N-PHENYL-N-AMINOUARCILS AND SALTS THEREOF AND USE THEREOF AS HERBICIDAL AGENTS” (Bayer Aktiengesellschaft, priority 2019, published 2022)
